# Values quoted from earlier work, collected in PubChem BioAssay AID1259409 (Chemical Carcinogenesis Research Information System (CCRIS), 2018).
# Tested on: rodent chemically induced tumor inhibition, incidence and multiplicity
# Experiment: CCRIS tumor inhibitor studies
smiles,measurement,setting,value
C=CCSCC=C,"tumour outcome (control, treated, inhibition, significance)","Carcinogen: 4-(METHYLNITROSAMINO)-1-(3-PYRIDYL)-1-BUTANONE, 64091-91-4, Dose [Inhibitor]: 0, 200 MG/KG BW IN CORN OIL FOR 3 D PRIOR TO CARCINOGEN TREATMENT (STUDY DURATION: 16 WK), Route [Inhibitor]: ORAL, Species: MOUSE, Strain/Sex: STRAIN-A/FEMALE, Target Tissue: Type of Lesion: LUNG: TUMOR, Dose [Carcinogen]: 100 MG/KG BW ONCE, Promoter: NONE USED","100%, 38%, 62%, not calculated"
same,"tumour outcome (control, treated, inhibition, significance)","Carcinogen: 4-(METHYLNITROSAMINO)-1-(3-PYRIDYL)-1-BUTANONE, 64091-91-4, Dose [Inhibitor]: 0, 200 MG/KG/BW IN CORN OIL 1/D FOR 3 DAY PRIOR TO CARCINOGEN DOSE (STUDY DURATION: 16 WK), Route [Inhibitor]: ORAL, Species: MOUSE, Strain/Sex: STRAIN-A/FEMALE, Target Tissue: Type of Lesion: LUNG: TUMOR, Dose [Carcinogen]: 2 MG ONCE ADMINISTERED 2 HR POST LAST AGENT DOSE, Promoter: NONE USED","100%, 38%, 62%, p<0.05"
same,"tumour outcome (control, treated, inhibition, significance)","Carcinogen: 7,12-DIMETHYLBENZ[A]ANTHRACENE, 57-97-6, Dose [Inhibitor]: 0, 1.8 MMOL/KG BW IN CORN OIL 96, 48 AND 24 HR PRIOR TO CARCINOGEN TREATMENT (STUDY DURATION: 25 WK), Route [Inhibitor]: GAVAGE, Species: RAT, Strain/Sex: SPRAGUE-DAWLEY/FEMALE, Target Tissue: Type of Lesion: MAMMARY GLAND: ADENOCARCINOMA, Dose [Carcinogen]: 10 MG ONCE, Promoter: NONE USED","92%, 56%, 39%, p<0.05"
same,"tumour outcome (control, treated, inhibition, significance)","Carcinogen: ARISTOLOCHIC ACID, 313-67-7, Dose [Inhibitor]: 0, 150 MG/KG BW ADMINISTERED 4 HR PRIOR TO EACH CARCINOGEN DOSE 2/WK FOR 12 WK (STUDY DURATION: 46 WK), Route [Inhibitor]: GAVAGE, Species: RAT, Strain/Sex: BD-6/MALE, Target Tissue: Type of Lesion: FORESTOMACH: CARCINOMA OR SARCOMA, Dose [Carcinogen]: 10 MG/KG BW 2/WK FOR 12 WK, Promoter: NONE USED","9/20 (45%), 2/20 (10%), 78%, p<0.01"
same,"tumour outcome (control, treated, inhibition, significance)","Carcinogen: ARISTOLOCHIC ACID, 313-67-7, Dose [Inhibitor]: 0, 150 MG/KG BW ADMINISTERED 24 AND 4 HR PRIOR TO EACH CARCINOGEN DOSE FOR 12 WK (STUDY DURATION: 46 WK), Route [Inhibitor]: GAVAGE, Species: RAT, Strain/Sex: BD-6/MALE, Target Tissue: Type of Lesion: FORESTOMACH: CARCINOMA OR SARCOMA, Dose [Carcinogen]: 10 MG/KG BW 2/WK FOR 12 WK, Promoter: NONE USED","11/25 (44%), 0/20 (0%), 100%, p<0.001"
same,"tumour outcome (control, treated, inhibition, significance)","Carcinogen: BENZO[A]PYRENE [50-32-8], Dose [Inhibitor]: 0, 200 MG/KG BW IN TRIOCTANOIN 1 D AND 2 HR PRIOR TO CARCINOGEN DOSE (STUDY DURATION: 21 WK), Route [Inhibitor]: GAVAGE, Species: MOUSE, Strain/Sex: CD-1/FEMALE, Target Tissue: Type of Lesion: SKIN: PAPILLOMA, Dose [Carcinogen]: 0.3 UMOL IN 0.2 ML ACETONE ONCE, Promoter: 12-O-TETRADECANOYLPHORBOL-13-ACETATE [16561-29-8]","92%, 73%, 21%, not calculated"
same,"tumour outcome (control, treated, inhibition, significance)","Carcinogen: BENZO[A]PYRENE [50-32-8], Dose [Inhibitor]: 200 MG/KG IN 10 µL TRIOCTANOIN ONCE 1 D AND 2 HR PRIOR TO CARCINOGEN DOSE (STUDY DURATION: 21 WK), Route [Inhibitor]: GAVAGE, Species: MOUSE, Strain/Sex: CD-1/FEMALE, Target Tissue: Type of Lesion: SKIN: PAPILLOMA, Dose [Carcinogen]: 0.3 UMOL IN 0.2 ML ACETONE ONCE (STUDY DURATION: 21 WK), Promoter: 12-O-TETRADECANOYLPHORBOL-13-ACETATE [16561-29-8]","92%, 74%, 20%, not calculated"
same,"tumour outcome (control, treated, inhibition, significance)","Carcinogen: DIETHYLNITROSAMINE, 55-18-5, Dose [Inhibitor]: 0, 150 MG/KG BW BY INTRAPERITONEAL INJECTION ON DAYS 13, 14 AND 15 OF AGE THEN 1 G/KG DIET FROM 21 TO 161 DAYS OF AGE (S, Route [Inhibitor]: INTRAPERITONEAL, ORAL, Species: MOUSE, Strain/Sex: C3H/MALE, Target Tissue: Type of Lesion: LIVER: ADENOMA, Dose [Carcinogen]: 4 MG/KG IN TRICAPRYLIN ONCE ON DAY 15 OF AGE, Promoter: NONE USED","100%, 97%, 3%, not significant"
same,"tumour outcome (control, treated, inhibition, significance)","Carcinogen: DIETHYLNITROSAMINE, 55-18-5, N-METHYL-N-NITROSOUREA, 684-93-5, N,N'-DIMETHYLHYDRAZINE, 540-73-8, N-BUTYL-N-(4-HYDR, Carcinogen: DIETHYLNITROSAMINE, 55-18-5, N-METHYL-N-NITROSOUREA, 684-93-5, N,N'-DIMETHYLHYDRAZINE, 540-73-8, N-BUTYL-N-(4-HYDR, Dose [Inhibitor]: 0, 200 MG/KG BW IN CORN OIL 3/WK FOR 6 WK BEGINNING POST CARCINOGEN TREATMENT (STUDY DURATION: 28 WK), Route [Inhibitor]: GAVAGE, Species: RAT, Strain/Sex: F344/MALE, Target Tissue: Type of Lesion: KIDNEY: RENAL CELL ADENOMA, Dose [Carcinogen]: 100 MG/KG BW DEN ONCE, 20 MG/KG BW MNU ONCE ON D 2, 5, 8 AND 11, 40 MG/KG BW DMH ON D 14, 17, 20 AND 23, 0.05% BHBN I, Dose [Carcinogen]: 100 MG/KG BW DEN ONCE, 20 MG/KG BW MNU ONCE ON D 2, 5, 8 AND 11, 40 MG/KG BW DMH ON D 14, 17, 20 AND 23, 0.05% BHBN I, Promoter: NONE USED","4/20 (20%), 4/19 (21%), -5%, not significant"
same,"tumour outcome (control, treated, inhibition, significance)","Carcinogen: DIETHYLNITROSAMINE, 55-18-5, N-METHYL-N-NITROSOUREA, 684-93-5, N,N'-DIMETHYLHYDRAZINE, 540-73-8, N-BUTYL-N-(4-HYDR, Carcinogen: DIETHYLNITROSAMINE, 55-18-5, N-METHYL-N-NITROSOUREA, 684-93-5, N,N'-DIMETHYLHYDRAZINE, 540-73-8, N-BUTYL-N-(4-HYDR, Dose [Inhibitor]: 0, 200 MG/KG BW IN CORN OIL 3/WK FOR 6 WK BEGINNING POST CARCINOGEN TREATMENT (STUDY DURATION: 28 WK), Route [Inhibitor]: GAVAGE, Species: RAT, Strain/Sex: F344/MALE, Target Tissue: Type of Lesion: LARGE INTESTINE: ADENOMA, Dose [Carcinogen]: 100 MG/KG BW DEN ONCE, 20 MG/KG BW MNU ONCE ON D 2, 5, 8 AND 11, 40 MG/KG BW DMH ON D 14, 17, 20 AND 23, 0.05% BHBN I, Dose [Carcinogen]: 100 MG/KG BW DEN ONCE, 20 MG/KG BW MNU ONCE ON D 2, 5, 8 AND 11, 40 MG/KG BW DMH ON D 14, 17, 20 AND 23, 0.05% BHBN I, Promoter: NONE USED","6/20 (30%), 1/19 (5%), 83%, not calculated"
same,"tumour outcome (control, treated, inhibition, significance)","Carcinogen: DIETHYLNITROSAMINE, 55-18-5, N-METHYL-N-NITROSOUREA, 684-93-5, N,N'-DIMETHYLHYDRAZINE, 540-73-8, N-BUTYL-N-(4-HYDR, Carcinogen: DIETHYLNITROSAMINE, 55-18-5, N-METHYL-N-NITROSOUREA, 684-93-5, N,N'-DIMETHYLHYDRAZINE, 540-73-8, N-BUTYL-N-(4-HYDR, Dose [Inhibitor]: 0, 200 MG/KG BW IN CORN OIL 3/WK FOR 6 WK BEGINNING POST CARCINOGEN TREATMENT (STUDY DURATION: 28 WK), Route [Inhibitor]: GAVAGE, Species: RAT, Strain/Sex: F344/MALE, Target Tissue: Type of Lesion: LARGE INTESTINE: CARCINOMA, Dose [Carcinogen]: 100 MG/KG BW DEN ONCE, 20 MG/KG BW MNU ONCE ON D 2, 5, 8 AND 11, 40 MG/KG BW DMH ON D 14, 17, 20 AND 23, 0.05% BHBN I, Dose [Carcinogen]: 100 MG/KG BW DEN ONCE, 20 MG/KG BW MNU ONCE ON D 2, 5, 8 AND 11, 40 MG/KG BW DMH ON D 14, 17, 20 AND 23, 0.05% BHBN I, Promoter: NONE USED","8/20 (40%), 7/19 (37%), 8%, not significant"
same,"tumour outcome (control, treated, inhibition, significance)","Carcinogen: DIETHYLNITROSAMINE, 55-18-5, N-METHYL-N-NITROSOUREA, 684-93-5, N,N-DIBUTYLNITROSAMINE, 924-16-3, Carcinogen: DIETHYLNITROSAMINE, 55-18-5, N-METHYL-N-NITROSOUREA, 684-93-5, N,N-DIBUTYLNITROSAMINE, 924-16-3, Dose [Inhibitor]: 0, 0.5% IN DIET BEGINNING POST CARCINOGEN TREATMENT AND CONTINUING TO WK 40 (STUDY DURATION: 40 WK), Route [Inhibitor]: ORAL, Species: RAT, Strain/Sex: F344/MALE, Target Tissue: Type of Lesion: LUNG: ADENOMA, Dose [Carcinogen]: 100 MG/KG DIETHYLNITROSAMINE ONCE FOLLOWED BY 20 MG/KG N-METHYL-N-NITROSOUREA ON D 2, 5, 8 AND 11 THEN 0.05% N-N-DIBUTYL, Promoter: NONE USED","9/16 (56%), 2/18 (11%), 80%, p<0.01"
